In patent US20040076974A1, “Liver necrosis predictive genes” (priority 2002, published 2004):
Where two headings read alike, the source gives them in different places.

Tested on: Sprague Dawley rats
Experimental: Sprague Dawley rats Crl:CD from Charles River, Raleigh, N.C. were divided into treated rats that receive a specific concentration of the compound (see Table 1) and. control rats that only received the vehicle in which the compound is mixed (e.g., saline).
At specified timepoints (6 h, 24 h and 72 h) after administration (intraperitoneal route) of the compound, a set number of rats (usually 3 control and 3 treated) were euthanized and tissues collected. Each, rat was heavily sedated with an overdose of CO2 by inhalation and a maximum amount of blood drawn. Exsanguination of the rat by this drawing of blood kills the rat. The method of collecting the tissues is very important and ensures preserving the quality of the mRNA in the tissues. The body of the rat was then opened up and prosectors rapidly removed the tissues (including) and immediately placed them into liquid nitrogen. […] The organs/tissues were then packaged into well-labeled plastic freezer quality bags and stored at −80 degrees until needed for isolation of the mRNA from a portion of the organ/tissue sample.
Histopathology scores for each animal (assigned on a compound-dose basis as indicated in Table 1) were entered with gene expression data by using the GeneSpring™ ‘Drawn Gene’ function. Correlations between the histopathology scores and gene expression were conducted with the distance measures listed below:
Toxicity classifications were entered for training and test set as a parameter column. Toxicity, as defined by observation of necrosis in the at 72 hours after treatment, was entered as a “yes” or “no” for each animal in a compound-dose group. Additionally, a parameter column for random histopathology classification was designated. This was done by randomly assigning the same number of “yes” and “no” calls to the individual animals.

[1] = compound-dose group at 72 h; dose 20
[2] = compound-dosegroup at 72 h, dose 20
[3] = rat, intraperitoneal, dose 20 mg/kg, 72 hours after treatment
[4] = rat, intraperitoneal, dose 20 mg/kg, 72 hours; 1 = not remarkable, 2 and higher increasing severity
[5] = Sprague Dawley, rat, in vivo, ip, 50 mg/kg, 72 h
[6] = 72 h; compound-dose group; dose BRB 800, BUS 14, CAD 1, CAR 16
[7] = compound-dose group at 72 h; BUS 14, CAD 1, CAR 16 (dose codes, Table 1)

CN(N=O)C(=O)N[C@H]1C(O)O[C@H](CO)[C@@H](O)[C@@H]1O (mixture of isomers) [streptozotocin]
Liver Toxicity Necrosis Classification (compound-dose group at 72 h, dose 20): no | Liver Toxicity Necrosis Classification (compound-dose group at 72 h, dose 75): no | Liver Toxicity Necrosis Classification [1]: no | Liver Toxicity Necrosis Classification (compound-dose group at 72 h; dose 75): no | Liver Toxicity Necrosis Classification [2]: no | Liver Toxicity Necrosis Classification (compound-dosegroup at 72 h, dose 75): no | Liver Toxicity Necrosis Classification (compound-dosegroup at 72 h; dose PEG 5000, PUR 38, QUIN 25, STRZ 20): no | Liver Necrosis [3]: no | Score (histopathology liver necrosis severity score) [4]: 1 | Liver Necrosis (rat, intraperitoneal, dose 75 mg/kg, 72 hours after treatment): no | Score (histopathology liver necrosis severity score) (rat, intraperitoneal, dose 75 mg/kg, 72 hours; 1 = not remarkable, 2 and higher increasing severity): 1

O=c1[nH]cc(F)c(=O)[nH]1 [5-fluorouracil]
Score (histopathology liver necrosis severity score) (Sprague Dawley, rat, in vivo, ip, 13 mg/kg, 72 h): 1 | Score (histopathology liver necrosis severity score) [5]: 1 | Liver Toxicity Necrosis Classification (rat, in vivo): no | Liver Necrosis (rat, in vivo, ip, 13 mg/kg): no | Liver Necrosis (rat, in vivo, ip, 50 mg/kg): no

C[C@@H]1[C@H](O)[C@@H](C)/C=C/C=C/C=C/C=C/C=C/C=C/C=C/[C@H](O[C@@H]2O[C@H](C)[C@@H](O)[C@H](N)[C@@H]2O)C[C@@H]2O[C@](O)(C[C@@H](O)C[C@@H](O)[C@H](O)CC[C@@H](O)C[C@@H](O)CC(=O)O[C@H]1C)C[C@H](O)[C@H]2C(=O)O [amphotericin B]
Liver Toxicity Necrosis Classification (72 h; dose 5): no | Liver Toxicity Necrosis Classification (72 h; dose 20): no | Liver Toxicity Necrosis Classification (AMPB 20; 72 h): no | Liver Toxicity Necrosis Classification (compound-dose group at 72 h; dose 5): no | Liver Toxicity Necrosis Classification [1]: no | Liver Toxicity Necrosis Classification (compound-dosegroup at 72 h, dose 5): no | Liver Toxicity Necrosis Classification [2]: no | Liver Necrosis (rat, intraperitoneal, dose 5 mg/kg, 72 hours after treatment): No | Score (histopathology liver necrosis severity score) (rat, intraperitoneal, dose 5 mg/kg, 72 hours; 1 = not remarkable, 2 and higher increasing severity): 1 | Liver Necrosis [3]: No | Score (histopathology liver necrosis severity score) [4]: 1

Cn1cnc([N+](=O)[O-])c1Sc1ncnc2nc[nH]c12 [azathioprine]
Score (histopathology liver necrosis severity score) [5]: 1 | Score (histopathology liver necrosis severity score) (Sprague Dawley, rat, in vivo, ip, 200 mg/kg, 72 h): 1 | Liver Toxicity Necrosis Classification (rat, in vivo): no | Liver Necrosis (rat, in vivo, ip, 50 mg/kg): No | Liver Necrosis (rat, in vivo, ip, 200 mg/kg): No

c1ccccc1 [benzene]
Liver Toxicity Necrosis Classification (rat, in vivo): no | Liver Necrosis (rat, in vivo, ip): No | Score (histopathology liver necrosis severity score) (rat, in vivo, ip): 1

c1ccc2c(c1)cc1ccc3cccc4ccc2c1c34 [benzo[a]pyrene]
Liver Toxicity Necrosis Classification (compound-dose group at 72 h; dose 30): no | Liver Necrosis (rat, intraperitoneal, dose 30 mg/kg, 72 hours after treatment): No | Score (histopathology liver necrosis severity score) (rat, intraperitoneal, dose 30 mg/kg, 72 hours; 1 = not remarkable, 2 and higher increasing severity): 1

CS(=O)(=O)OCCCCOS(C)(=O)=O [busulfan]
Score (histopathology liver necrosis severity score) (Sprague Dawley, rat, in vivo, ip, 14 mg/kg, 72 h): 1 | Liver Toxicity Necrosis Classification (rat, in vivo): no | Liver Necrosis (rat, in vivo, ip, 14 mg/kg): no

[Cl][Cd][Cl] [cadmium chloride]
Liver Toxicity Necrosis Classification [6]: no | Liver Toxicity Necrosis Classification (72 h; compound-dose group; dose CAD 2): no | Liver Toxicity Necrosis Classification (compound-dose group at 72 h, dose 1; no = no necrosis observed): no | Liver Toxicity Necrosis Classification (compound-dose group at 72 h, dose 4; yes = necrosis observed): yes | Liver Toxicity Necrosis Classification [7]: no | Liver Necrosis (rat, intraperitoneal, dose 1 mg/kg, 72 hours after treatment): no | Score (histopathology liver necrosis severity score) (rat, intraperitoneal, dose 1 mg/kg, 72 hours; 1 = not remarkable, 2 and higher increasing severity): 1 | Liver Necrosis (rat, intraperitoneal, dose 2 mg/kg, 72 hours after treatment): No | Score (histopathology liver necrosis severity score) (rat, intraperitoneal, dose 2 mg/kg, 72 hours; 1 = not remarkable, 2 and higher increasing severity): 1 | Liver Necrosis (rat, intraperitoneal, dose 4 mg/kg, 72 hours after treatment): Yes | Score (histopathology liver necrosis severity score) (rat, intraperitoneal, dose 4 mg/kg, 72 hours; 1 = not remarkable, 2 and higher increasing severity): 3

O=NN(CCCl)C(=O)NCCCl [carmustine]
Liver Toxicity Necrosis Classification (72 h, dose 16): no | Liver Toxicity Necrosis Classification [6]: no | Liver Toxicity Necrosis Classification [7]: no | Liver Toxicity Necrosis Classification (compound-dosegroup at 72 h; dose 16): no | Liver Necrosis (rat, intraperitoneal, dose 16 mg/kg, 72 hours after treatment): no | Score (histopathology liver necrosis severity score) (rat, intraperitoneal, dose 16 mg/kg, 72 hours; 1 = not remarkable, 2 and higher increasing severity): 1

ClC(Cl)Cl [chloroform]
Liver Toxicity Necrosis Classification (rat, in vivo): no | Liver Necrosis (rat, in vivo, ip): no | Score (histopathology liver necrosis severity score) (rat, in vivo, ip): 1

CN(C)CCCN1c2ccccc2Sc2ccc(Cl)cc21 [chlorpromazine]
Score (histopathology liver necrosis severity score) (Sprague Dawley, rat, in vivo, ip, 8 mg/kg, 72 h): 1 | Score (histopathology liver necrosis severity score) (Sprague Dawley, rat, in vivo, ip, 30 mg/kg, 72 h): 1 | Liver Toxicity Necrosis Classification (rat, in vivo): no | Liver Necrosis (rat, in vivo, ip, 8 mg/kg): no | Liver Necrosis (rat, in vivo, ip, 30 mg/kg): no

N.N.[Cl][Pt][Cl] [cisplatin]
Liver Necrosis (rat, intraperitoneal, dose 10 mg/kg, 72 hours after treatment): no | Score (histopathology liver necrosis severity score) (rat, intraperitoneal, dose 10 mg/kg, 72 hours; 1 = not remarkable, 2 and higher increasing severity): 1

CCOC(=O)C(C)(C)Oc1ccc(Cl)cc1 [clofibrate]
Score (histopathology liver necrosis severity score) (Sprague Dawley, rat, in vivo, ip, 75 mg/kg, 72 h): 1 | Score (histopathology liver necrosis severity score) (Sprague Dawley, rat, in vivo, ip, 250 mg/kg, 72 h): 1 | Liver Toxicity Necrosis Classification (rat, in vivo): no | Liver Necrosis (rat, in vivo, ip, 75 mg/kg): no | Liver Necrosis (rat, in vivo, ip, 250 mg/kg): no

CN1CCN(C2=Nc3cc(Cl)ccc3Nc3ccccc32)CC1 [clozapine]
Score (histopathology liver necrosis severity score) (Sprague Dawley, rat, in vivo, ip, 45 mg/kg, 72 h): 1 | Score (histopathology liver necrosis severity score) (Sprague Dawley, rat, in vivo, ip, 180 mg/kg, 72 h): 1 | Liver Toxicity Necrosis Classification (rat, in vivo): no | Liver Necrosis (rat, in vivo, ip, 45 mg/kg): no | Liver Necrosis (rat, in vivo, ip, 180 mg/kg): no

O=C(O)c1cc(-c2ccc(F)cc2F)ccc1O [diflunisal]
Score (histopathology liver necrosis severity score) (Sprague Dawley, rat, in vivo, ip, 25 mg/kg, 72 h): 1 | Score (histopathology liver necrosis severity score) (Sprague Dawley, rat, in vivo, ip, 100 mg/kg, 72 h): 1 | Liver Toxicity Necrosis Classification (rat, in vivo): no | Liver Necrosis (rat, in vivo, ip, 25 mg/kg): no | Liver Necrosis (rat, in vivo, ip, 100 mg/kg): no

CN(C)N=O [dimethylnitrosamine]
Liver Toxicity Necrosis Classification (72 h, dose 20): yes | Liver Toxicity Necrosis Classification (72 h; dose 20): yes | Liver Toxicity Necrosis Classification (compound-dose group at 72 h; CCL4 1000, DMN 20, LPS 8): yes | Liver Necrosis [3]: Yes | Score (histopathology liver necrosis severity score) [4]: 9

COc1cccc2c1C(=O)c1c(O)c3c(c(O)c1C2=O)C[C@@](O)(C(=O)CO)C[C@@H]3O[C@H]1C[C@H](N)[C@H](O)[C@H](C)O1 [doxorubicin]
Score (histopathology liver necrosis severity score) (Sprague Dawley, rat, in vivo, ip, 12 mg/kg, 72 h): 1 | Liver Toxicity Necrosis Classification (rat, in vivo): no | Liver Necrosis (rat, in vivo, ip, 12 mg/kg): no

CCC(=O)O[C@H]1[C@H](O[C@@H]2[C@@H](C)[C@H](O[C@H]3C[C@@](C)(OC)[C@@H](O)[C@H](C)O3)[C@@H](C)C(=O)O[C@H](CC)[C@@](C)(O)[C@H](O)[C@@H](C)C(=O)[C@H](C)C[C@@]2(C)O)O[C@H](C)C[C@@H]1N(C)C [erythromycin estolate]
Liver Toxicity Necrosis Classification (72 h, dose 40): no | Liver Toxicity Necrosis Classification (compound-dose group at 72 h; dose 40): no | Liver Toxicity Necrosis Classification (compound-dose group at 72 h; dose 160): no | Liver Toxicity Necrosis Classification (dose 40, 72 h): no | Liver Toxicity Necrosis Classification (dose 160, 72 h): no | Liver Necrosis (rat, intraperitoneal, dose 40 mg/kg, 72 hours after treatment): no | Score (histopathology liver necrosis severity score) (rat, intraperitoneal, dose 40 mg/kg, 72 hours; 1 = not remarkable, 2 and higher increasing severity): 1 | Liver Necrosis (rat, intraperitoneal, dose 160 mg/kg, 72 hours after treatment): no | Score (histopathology liver necrosis severity score) (rat, intraperitoneal, dose 160 mg/kg, 72 hours; 1 = not remarkable, 2 and higher increasing severity): 1

C[C@]12CC[C@@H]3c4ccc(O)cc4CC[C@H]3[C@@H]1CC[C@@H]2O [estradiol]
Score (histopathology liver necrosis severity score) (Sprague Dawley, rat, in vivo, ip, 0.1 mg/kg, 72 h): 1 | Score (histopathology liver necrosis severity score) (Sprague Dawley, rat, in vivo, ip, 0.4 mg/kg, 72 h): 1 | Liver Toxicity Necrosis Classification (rat, in vivo): no | Liver Necrosis (rat, in vivo, ip, 0.1 mg/kg): no | Liver Necrosis (rat, in vivo, ip, 0.4 mg/kg): no

CCO [ethanol]
Liver Toxicity Necrosis Classification (rat, in vivo): no | Liver Necrosis (rat, in vivo, ip): no | Score (histopathology liver necrosis severity score) (rat, in vivo, ip): 1
